From US9758529B2, “Fused dihydro-4H-pyrazolo[5,1-C][1,4]oxazinyl compounds and analogs for treating CNS disorders” (Sunovion Pharmaceuticals Inc., priority 2015, dated 2017)

System: mice
Experiment: Neuropharmacological Assay (SmartCube)
Format: in vivo
Conditions: i.p. 15 min before behavioral test; 3 doses, most efficacious dose(s) presented
Description: Neurosci. […] As reported in Roberds, because psychiatric diseases generally result from disorders of cell-cell communication or circuitry, intact systems are useful in detecting improvement in disease-relevant endpoints. These endpoints are typically behavioral in nature, often requiring human observation and interpretation. To facilitate testing of multiple compounds for behavioral effects relevant to psychiatric disease, PsychoGenics, Inc. (Tarrytown, N.Y., “PGI”) developed SmartCube™, an automated system in which behaviors of compound-treated mice are captured by digital video and analyzed with computer algorithms. […] PGI Analytical Systems uses data from SmartCube™ to compare the behavioral signature of a test compound to a database of behavioral signatures obtained using a large set of diverse reference compounds. (The composition of the database as well as validation of the method is further described in Roberds). In this way, the neuropharmacological effects of a test compound can be predicted by similarity to major classes of compounds, such as antipsychotics, anxiolytics and antidepressants.
The SmartCube™ system produces an activity signature indicating the probability that the activity of the test compound at the administered dose matches a given class of neuropharmacological agents. (See, e.g., Roberds, FIGS. 2 and 3). The test compound is simultaneously compared against multiple classes of agents; thus, a separate probability is generated for each behavioral effect measured (e.g., anxiolytic activity, analgesic activity, etc.). In Table 2 and 2B, these probabilities are reported for each behavioral effect measured as follows:
where LOQ is the limit of quantification.
Provided compounds were dissolved in a mixture of Pharmasolve™ (N-methyl-2-pyrrolidone), polyethylene glycol and propylene glycol, and were injected i.p. 15 min. before the behavioral test. For each compound, injections were administered at 3 different doses. For each behavioral effect measured, results for the most efficacious dose(s) are presented.

SMILES | AD: ADHD (probability of class match) | AG: analgesic (probability of class match) | AX: anxiolytic (probability of class match) | CE: cognitive enhancer (probability of class match) | DP: anti-depressant (probability of class match) | HA: hallucinogen (probability of class match) | MS: mood stabilizer (probability of class match) | PS: anti-psychotic (probability of class match) | SD: sedative hypnotic (probability of class match) | UN: uncharacterized CNS activity (probability of class match)
CN1CC(C2OCCn3nc4ccccc4c32)C1.Cl (stereo not drawn) [Compound 67, 3-(3,4-dihydro-1H-[1,4]oxazino[4,3-b]indazol-1-yl)-1-methylazetidin-1-ium chloride] | + (LOQ≦ + <5%) | + (LOQ≦ + <5%) | ++ (5%≦ ++ <25%) | + (LOQ≦ + <5%) | ++ (5%≦ ++ <25%) | + (LOQ≦ + <5%) | + (LOQ≦ + <5%) | + (LOQ≦ + <5%) | + (LOQ≦ + <5%) | + (LOQ≦ + <5%)
c1ccc2c3n(nc2c1)CCOC3C1CNC1 (stereo not drawn) [Compound 66, 3-(3,4-dihydro-1H-[1,4]oxazino[4,3-b]indazol-1-yl)azetidin-1-ium chloride] | + (LOQ≦ + <5%) | ++ (5%≦ ++ <25%) | ++ (5%≦ ++ <25%) | + (LOQ≦ + <5%) | ++ (5%≦ ++ <25%) | + (LOQ≦ + <5%) | + (LOQ≦ + <5%) | + (LOQ≦ + <5%) | + (LOQ≦ + <5%) | + (LOQ≦ + <5%)
Cl.c1ccc2c3n(nc2c1)CCOC3[C@@H]1COCCN1 (stereo partly drawn) [Compound 43, (3S)-3-(3,4-dihydro-1H-[1,4]oxazino[4,3-b]indazol-1-yl)morpholin-4-ium chloride] | + (LOQ≦ + <5%) | + (LOQ≦ + <5%) | + (LOQ≦ + <5%) | + (LOQ≦ + <5%) | + (LOQ≦ + <5%) | + (LOQ≦ + <5%) | + (LOQ≦ + <5%) | + (LOQ≦ + <5%) | + (LOQ≦ + <5%) | + (LOQ≦ + <5%)
CN(CC1OCCn2nc3ccccc3c21)C1CCC1.Cl (stereo not drawn) [Compound 29, N-((3,4-dihydro-1H-[1,4]oxazino[4,3-b]indazol-1-yl)methyl)-N-methylcyclobutanaminium chloride] | + (LOQ≦ + <5%) | + (LOQ≦ + <5%) | ++ (5%≦ ++ <25%) | ++ (5%≦ ++ <25%) | +++ (25%≦ +++ <50%) | ++ (5%≦ ++ <25%) | + (LOQ≦ + <5%) | + (LOQ≦ + <5%) | + (LOQ≦ + <5%) | + (LOQ≦ + <5%)
CCN(C)CC1OCCn2nc3ccccc3c21.Cl (stereo not drawn) [Compound 28, N-((3,4-dihydro-1H-[1,4]oxazino[4,3-b]indazol-1-yl)methyl)-N-methylethanaminium chloride] | + (LOQ≦ + <5%) | + (LOQ≦ + <5%) | ++ (5%≦ ++ <25%) | ++ (5%≦ ++ <25%) | ++++ (50%≦ ++++) | ++ (5%≦ ++ <25%) | + (LOQ≦ + <5%) | + (LOQ≦ + <5%) | + (LOQ≦ + <5%) | ++ (5%≦ ++ <25%)
CN(C)C[C@@H]1OCCn2nc3ccccc3c21 [Compound 3, (S)-(3,4-dihydro-1H-[1,4]oxazino[4,3-b]indazol-1-yl)-N,N-dimethylmethanaminium chloride] | + (LOQ≦ + <5%) | + (LOQ≦ + <5%) | + (LOQ≦ + <5%) | + (LOQ≦ + <5%) | ++ (5%≦ ++ <25%) | + (LOQ≦ + <5%) | + (LOQ≦ + <5%) | ++ (5%≦ ++ <25%) | + (LOQ≦ + <5%) | +++ (25%≦ +++ <50%)
CNC[C@@H]1OCCn2nc3ccccc3c21 [Compound 1, (S)-(3,4-dihydro-1H-[1,4]oxazino[4,3-b]indazol-1-yl)-N-methylmethanaminium chloride] | + (LOQ≦ + <5%) | + (LOQ≦ + <5%) | ++ (5%≦ ++ <25%) | + (LOQ≦ + <5%) | + (LOQ≦ + <5%) | + (LOQ≦ + <5%) | + (LOQ≦ + <5%) | + (LOQ≦ + <5%) | + (LOQ≦ + <5%) | + (LOQ≦ + <5%)
CN(CC1OCCCn2nc3ccccc3c21)C1CCC1.Cl (stereo not drawn) [Compound 55, N-((4,5-dihydro-1H,3H-[1,4]oxazepino[4,3-b]indazol-1-yl)methyl)-N-methylcyclobutanaminium chloride] | + (LOQ≦ + <5%) | + (LOQ≦ + <5%) | ++ (5%≦ ++ <25%) | + (LOQ≦ + <5%) | + (LOQ≦ + <5%) | + (LOQ≦ + <5%) | + (LOQ≦ + <5%) | + (LOQ≦ + <5%) | + (LOQ≦ + <5%) | +++ (25%≦ +++ <50%)
CN[C@H](C)[C@H]1OCCn2nc3ccccc3c21.Cl (relative stereo) [Compound 31, (+/−)-rel-(R)-1-((R)-3,4-dihydro-1H-[1,4]oxazino[4,3-b]indazol-1-yl)-N-methylethanaminium chloride] | + (LOQ≦ + <5%) | ++ (5%≦ ++ <25%) | +++ (25%≦ +++ <50%) | ++ (5%≦ ++ <25%) | ++ (5%≦ ++ <25%) | + (LOQ≦ + <5%) | + (LOQ≦ + <5%) | ++ (5%≦ ++ <25%) | + (LOQ≦ + <5%) | +++ (25%≦ +++ <50%)

Same assay, conditions: i.p. 15 min before behavioral test; 3 doses, most efficacious dose(s) presented

SMILES | XG: anxiogenic (probability of class match)
CN1CC(C2OCCn3nc4ccccc4c32)C1.Cl (stereo not drawn) [Compound 67, 3-(3,4-dihydro-1H-[1,4]oxazino[4,3-b]indazol-1-yl)-1-methylazetidin-1-ium chloride] | + (LOQ≦ + <5%)
c1ccc2c3n(nc2c1)CCOC3C1CNC1 (stereo not drawn) [Compound 66, 3-(3,4-dihydro-1H-[1,4]oxazino[4,3-b]indazol-1-yl)azetidin-1-ium chloride] | + (LOQ≦ + <5%)
Cl.c1ccc2c3n(nc2c1)CCOC3[C@@H]1COCCN1 (stereo partly drawn) [Compound 43, (3S)-3-(3,4-dihydro-1H-[1,4]oxazino[4,3-b]indazol-1-yl)morpholin-4-ium chloride] | + (LOQ≦ + <5%)
CN(CC1OCCn2nc3ccccc3c21)C1CCC1.Cl (stereo not drawn) [Compound 29, N-((3,4-dihydro-1H-[1,4]oxazino[4,3-b]indazol-1-yl)methyl)-N-methylcyclobutanaminium chloride] | + (LOQ≦ + <5%)
CCN(C)CC1OCCn2nc3ccccc3c21.Cl (stereo not drawn) [Compound 28, N-((3,4-dihydro-1H-[1,4]oxazino[4,3-b]indazol-1-yl)methyl)-N-methylethanaminium chloride] | + (LOQ≦ + <5%)
CN(C)C[C@@H]1OCCn2nc3ccccc3c21 [Compound 3, (S)-(3,4-dihydro-1H-[1,4]oxazino[4,3-b]indazol-1-yl)-N,N-dimethylmethanaminium chloride] | + (LOQ≦ + <5%)
CNC[C@@H]1OCCn2nc3ccccc3c21 [Compound 1, (S)-(3,4-dihydro-1H-[1,4]oxazino[4,3-b]indazol-1-yl)-N-methylmethanaminium chloride] | + (LOQ≦ + <5%)
CN(CC1OCCCn2nc3ccccc3c21)C1CCC1.Cl (stereo not drawn) [Compound 55, N-((4,5-dihydro-1H,3H-[1,4]oxazepino[4,3-b]indazol-1-yl)methyl)-N-methylcyclobutanaminium chloride] | + (LOQ≦ + <5%)
CN[C@H](C)[C@H]1OCCn2nc3ccccc3c21.Cl (relative stereo) [Compound 31, (+/−)-rel-(R)-1-((R)-3,4-dihydro-1H-[1,4]oxazino[4,3-b]indazol-1-yl)-N-methylethanaminium chloride] | + (LOQ≦ + <5%)
